Source: US7959907B2, “Method of treating cancer by combination therapy using TNF and alpha-galactosylceramide” (VIB VZW, priority 2007, dated 2011)

Assays:
B16B16 melanoma = experiment: Tumour experiment: subcutaneously growing B16B16 melanoma in C57BL/6 mice, tumor size index; format: in vivo
Description: Female C57BL/6J@RJ mice were purchased from Janvier (Le Genest-Saint-Isle, France). The animals were housed in 14-10 hours light/dark cycles in a temperature-controlled, air-conditioned room, and received food and water ad libitum. The mice were used for the tumour experiment at the age of 8-12 weeks.
The melanin-positive melanoma B16B16 cells (Hart et al., 1979) were cultured in RPMI 1640 (Invitrogen) supplemented with 10% FCS, 50 IU/ml penicillin G, 50 μg/ml streptomycin sulphate, 2 mM L-glutamine and 0.4 mM Na-pyruvate. For tumor inoculation cells were detached from the culture flask by a short EDTA treatment, washed three times in endotoxin-free sterile PBS (Sigma), and resuspended in PBS at 6×10^6 cells/ml.
On day 0, the mice were inoculated with 6×10^5 cells subcutaneously in the back just in front of the hind limb. Treatment was started when the tumor size index (TSI), i.e., the product of the largest perpendicular diameters in cm, reached 0.5 (day 13). Treatment with hTNF (30 μg/injection) or low dose mTNF (0.7 μg/injection) was given daily for 9 or 10 consecutive days via paralesional injection (subcutaneous injection near the site of the tumor, but outside the nodule). Alpha-GalCer (1-2 μg/injection) was injected intraperitoneally. […] TSI and body weight were measured every day prior to injection and every two or three days when treatment was finished.

cancer = settings: clinical studies; cited from earlier work

Structure (SMILES): CCCCCCCCCCCCCCCCCCCCCCCCCC(=O)N[C@@H](CO[C@H]1O[C@H](CO)[C@H](O)[C@H](O)[C@H]1O)[C@H](O)[C@H](O)CCCCCCCCCCCCCC [alpha-GalCer, (2S 3S, 4R)-1-O-(alfa-D-galactopyranosyl)-N-hexacosanoyl-2-amino-1,3,4-octadecanetriol]
- effect on tumour growth (B16B16 melanoma; larger scale experiment, n=7, alpha-GalCer 1 μg/mouse pre-treatment, hTNF 30 μg/injection, low dose mTNF 0.7 μg/injection): small inhibiting effect
- effect on tumor growth (B16B16 melanoma; pilot experiment, alpha-GalCer 2 μg/mouse i.p., hTNF 30 μg/injection paralesional daily, single agents alone): no effect on tumor growth
- clinical anti-tumour effects (cancer): no clinical anti-tumour effects were recorded
